Here are results for one molecule from US7122668B2, “Platinum complexes and their use in therapy” (priority 2002, dated 2006).

For orientation: IC50 means the concentration at which inhibition is half-maximal. Read a low IC50 as inhibition by little substance.

Assay [1] concerns OV-1063 cells. Put plainly: Determination of Pt-DNA adducts by FAAS. Format: cell-based, human. On the procedure:
(§1) Cells were seeded for 48 hr before one of the drugs was added to the culture medium. After 24 hr of exposure, the complexes were removed and the cells washed twice with ice-cold PBS and pelleted. DNA from platinum-containing material (2*10^6 cells) was extracted from the cell pellet by QIAamp DNA Blood Kit (QIAGEN, Germany) according to the manufacture instructions. DNA yield was determined by measuring the concentration of DNA in the eluate by absorbance at 260 nm.

The test system of assay [2] is C-26 cells. Put plainly: Determination of Pt-DNA adducts by FAAS. In kind it is cell-based, human. On the procedure: as §1
The subject of assay [3] is OV-1063 cells. The assay is described as follows: Platinum complex intracellular accumulation (FAAS). Format: cell-based, human. The conditions noted are these: OV-1063, 24 hr. On the procedure: (§2) Cells were seeded for 48 hr before one of the complexes was added to the culture medium. After 24 hr of exposure, the complexes were removed and the cells washed twice with ice-cold PBS and pelleted. The cells (1*10^6) were dried and mineralized by heating for 10 min in 65% HNO3 (BDH, England)^(22). Samples were dissolved in de-ionized water and each sample was measured at two different dilutions by flameless Zeeman atomic absorption spectrometer (FAAS). The calibration curves included 5 standards of K2PtCl4 stock solution with concentrations ranging from 50 to 250 ng platinum per ml. Platinum content was expressed as picomoles platinum per 1*10^6 cells.
(§3) The Pt content associated with the cells was measured by Atomic Absorption Spectroscopy (AAS).

The test system of assay [4] is C-26 cells. The assay is described as follows: Platinum complex intracellular accumulation (FAAS). In kind it is cell-based, human. To be noted: C-26, 24 hr. The protocol: as §2, §3
For a further assay, the system named is CH1cisR. Put plainly: Microculture tetrazolium (MTS) cell survival assay. In kind it is cell-based. The protocol: (§4) Cytotoxicity of the synthesized complexes was also tested by the MTS method^(21). Accordingly, the compounds were incubated for 24 hours with the corresponding cell lines and the cell survival in compound-treated cultures was evaluated.
(§5) The complexes were incubated for 24 hours with the above mentioned cell lines and the cell survival in compound-treated cultures was evaluated by the (microculture tetrazolium) MTS method as previously reported.

Another assay has as its system CH1. Put plainly: Microculture tetrazolium (MTS) cell survival assay. Format: cell-based. The conditions noted are these: 24 hours incubation. On the procedure:
as §4, §5

A further assay relates to 41M. The assay is described as follows: Microculture tetrazolium (MTS) cell survival assay. Format: cell-based. The conditions noted are these: 24 hours incubation. The protocol:
as §4, §5

The subject of a further assay is 41McisR. Put plainly: Microculture tetrazolium (MTS) cell survival assay. In kind it is cell-based. The protocol: as §4, §5
The subject of a further assay is A2780cisR. Put plainly: Microculture tetrazolium (MTS) cell survival assay. In kind it is cell-based. The protocol:
as §4, §5

Another assay deals with A2780. Put plainly: Microculture tetrazolium (MTS) cell survival assay. In kind it is cell-based. The conditions noted are these: 24 hours incubation. On the procedure: as §4, §5
The test system of another assay is plasmid pS16-hGH DNA. The assay is described as follows: Determination of Pt-DNA adducts by EtBr fluorescence. Format: binding. The conditions noted are these: DNA modified 24 hr. The protocol:
A plasmid (4.8 kbp) containing a gene coding for human growth hormone, plasmid pS16-hGH, was prepared as previously described^(23). The freshly prepared DNA was analyzed by agarose gel (1%) electrophoresis using post-staining with SYBR Green I fluorescent dye (Molecular Probes, Eugene, Oreg.). […] The ratio of absorbance at 260 nm to that at 280 nm was always between 1.8 and 1.9.
DNA were modified by the platinum complexes in 10 mM NaClO4 (pH 7.0) at 37° C. in the dark for 24 hr. Measurements of EtBr fluorescence were performed on an LS50B luminescence spectrometer (Perkin Elmer, Norwalk, Conn.). Fluorescence measurements of DNA modified by platinum in the presence of EtBr were performed using the excitation wavelength of 546 nm (slit 10 run) and emission wavelength of 590 nm (slit 10 nm) at 25° C. The concentrations were 0.01 mg/ml for DNA and 0.04 mg/ml for EtBr, which corresponded to the saturation of all intercalation sites of EtBr in DNA.
EtBr, as the fluorescent probe, was used to distinguish between perturbations induced in DNA by adducts of platinum (II) compounds^(14). Binding of EtBr by intercalation is blocked in a stoichiometric manner by formation of the bifunctional adducts, as of Cis-Pt, which results in a loss of fluorescence intensity. On the other hand, formation of monofunctional adducts results only in a slight decrease of EtBr fluorescence.

The test system of assay [5] is OV-1063 cells. To be noted: 5 hr, 6.5 μM. The source says: (§6) (1) By staining of the C-26 and OV-1063 cells with Merocyanine 540 (MC 540) (Molecular probes, Oregon, USA) and 4′, 6-diamidino-2-phenylindone dihydrochloride (DAPI) (Molecular probes, Oregon, USA). This assay is based on the observation that soon after the initiation of apoptosis, phosphatidylserine (PS) translocates from the inner face of the plasma membrane to the cell surface. At this point, PS can be easily detected by staining with MC 540, which has a strong affinity to PS^(25). Chromatin condensation was assessed by staining with DAPI, which preferentially stains double stranded DNA. In the following experiments samples containing 5*10^5 cells were cultured on 6-well plates covered with a glass coverslip. After treatment of cells with IC50 of the complexes, cells were washed with PBS and incubated for 2 min in the dark in 500 μl of PBS containing 2.5 μl of MC 540 (1 mg/ml). After that cells were washed with PBS, fixated with 4% formaldehyde and stained with 300 μl DAPI (3 μM). Thereafter, glass coverslip was placed on a glass slide and photographed using a fluorescence confocal microscope.
(§7) Apoptosis, also known as programmed cell death, is involved in the regulation of cell number in multicellular organism, and the pathogenesis of various diseases, including tumor progression, neurodegenerative disorders and viral infections. […]

The test system of assay [6] is C-26 cells. The conditions noted are these: 5 hr, 4.5 μM.
Text: as §6, §7

`C1CCNCC1.Cc1ccncc1.[Cl][Pt][Cl]` [Complex 5, trans-[PtCl2(4-picoline)(piperidine)]]: the Pt-DNA adducts came to 41 pmol Pt/50 μg DNA with OV-1063 cells [1] (OV-1063, 24 hr) and 51 pmol Pt/50 μg DNA with C-26 cells [2] (C-26, 24 hr). For the same molecule, the “DNA platination relative to Cis-Pt” value in the assay with OV-1063 cells [1] (OV-1063 cells) and with C-26 cells [2] (C-26 cells) was “the same” in each case. For the same molecule, the results for the Penetration to cells in the assay on OV-1063 cells [3] and with C-26 cells [4] were 2092 pmol Pt/1 * 10^6 cells and 14974 pmol Pt/1 * 10^6 cells, respectively. In addition, the IC50 in the assay on CH1cisR (24 hours incubation, MTS) came to 169 ± 9 µM; in the assay on CH1 it was 26 ± 3 µM; with 41M, 35 ± 4 µM; in the assay with 41McisR (24 hours incubation, MTS) it was 210 µM; with A2780cisR (24 hours incubation, MTS), 135 ± 7 µM; in the assay on A2780 it was 9 ± 1 µM. For the same molecule, the “resistance factor (IC50 resistant/IC50 sensitive)” value with CH1cisR (CH1cisR/CH1) was “(6.5)”; in the assay with 41McisR (41McisR/41M), 6.0; in the assay on A2780cisR (A2780cisR/A2780), 15. The “decrease of EtBr fluorescence intensity by DNA adducts” value in the assay on plasmid pS16-hGH DNA is recorded as “lower than that of cisplatin, however, greater than that of transplatin”. In addition, the results for the “apoptosis by MC 540/DAPI staining” value in the assay with OV-1063 cells [5] and with C-26 cells [6] were “large proportion of the OV-1063 cells appeared to be apoptotic” and “slightly red-fluorescent”, respectively.
